The source of these data is ChEMBL document CHEMBL2331315, “Target- and mechanism-based therapeutics for neurodegenerative diseases: strength in numbers” (J Med Chem, 2013).

For assay [1], the target named is Nitric oxide synthase 1 (Homo sapiens, UniProt P29475). The experiment in a line: Inhibition of human nNOS.
Assay [2] is filed under the species Homo sapiens. The experiment in a line: Selectivity ratio of IC50 for human eNOS to IC50 for human nNOS.
The nature of assay [3]: Inhibition of NMDA receptor in mouse medium spiny neurons by whole cell patch clamp assay. In general terms: The patch-clamp technique gives a direct electrical read-out from membranes.
The target of assay [4] is L-type calcium channel (Mus musculus, UniProt Q01815+Q02789+Q99246+Q9JIS7). The experiment in a line: Inhibition of Voltage-dependent L-type calcium channel in mouse medium spiny neurons by whole cell patch clamp assay.
The nature of assay [5]: Selectivity ratio of Ki for bovine eNOS to Ki for rat nNOS.
A short description of assay [6]: Inhibition of bovine nNOS. Also on record: species or system Bos taurus.
The nature of assay [7]: Selectivity ratio of Ki for mouse iNOS to Ki for rat nNOS.
Assay [8] addresses T1, Nitric oxide synthase 3 (Homo sapiens, UniProt P29474).
T1 sequence (P29474 whole entry): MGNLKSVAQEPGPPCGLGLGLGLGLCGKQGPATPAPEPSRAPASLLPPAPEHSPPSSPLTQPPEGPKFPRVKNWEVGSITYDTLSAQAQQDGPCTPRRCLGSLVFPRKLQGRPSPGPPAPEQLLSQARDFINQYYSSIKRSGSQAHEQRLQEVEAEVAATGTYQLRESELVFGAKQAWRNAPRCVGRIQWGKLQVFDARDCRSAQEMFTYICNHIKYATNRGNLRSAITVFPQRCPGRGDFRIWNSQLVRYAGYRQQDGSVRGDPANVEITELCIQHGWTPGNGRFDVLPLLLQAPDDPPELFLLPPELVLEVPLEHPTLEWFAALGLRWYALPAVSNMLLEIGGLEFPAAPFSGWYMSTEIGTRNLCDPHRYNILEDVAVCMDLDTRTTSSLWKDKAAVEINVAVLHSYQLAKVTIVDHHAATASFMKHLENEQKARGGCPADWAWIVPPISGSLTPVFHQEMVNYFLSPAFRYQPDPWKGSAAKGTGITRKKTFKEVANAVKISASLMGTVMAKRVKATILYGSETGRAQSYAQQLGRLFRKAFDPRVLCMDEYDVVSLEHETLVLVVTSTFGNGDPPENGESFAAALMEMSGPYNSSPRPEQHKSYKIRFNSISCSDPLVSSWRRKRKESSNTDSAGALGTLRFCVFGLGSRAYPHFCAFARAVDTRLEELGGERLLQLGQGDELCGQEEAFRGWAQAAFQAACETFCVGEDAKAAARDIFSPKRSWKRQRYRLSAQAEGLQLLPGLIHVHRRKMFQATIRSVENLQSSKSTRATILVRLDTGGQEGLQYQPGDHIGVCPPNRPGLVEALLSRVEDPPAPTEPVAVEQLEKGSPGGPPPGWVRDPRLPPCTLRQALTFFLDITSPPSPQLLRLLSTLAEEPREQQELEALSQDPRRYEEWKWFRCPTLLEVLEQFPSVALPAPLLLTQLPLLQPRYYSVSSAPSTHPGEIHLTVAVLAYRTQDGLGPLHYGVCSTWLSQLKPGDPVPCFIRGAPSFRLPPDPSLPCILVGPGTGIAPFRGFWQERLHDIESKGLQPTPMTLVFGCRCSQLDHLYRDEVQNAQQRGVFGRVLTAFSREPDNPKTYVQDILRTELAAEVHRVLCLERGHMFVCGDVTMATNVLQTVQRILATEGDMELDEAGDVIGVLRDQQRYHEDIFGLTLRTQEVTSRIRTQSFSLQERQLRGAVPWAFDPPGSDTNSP
In words: Inhibition of human eNOS.

The target in assay [9] is Nitric oxide synthase, inducible (Homo sapiens, UniProt P35228). In words: Inhibition of human iNOS.
The target of assay [10] is Microtubule-associated protein tau (Homo sapiens, UniProt P10636). In words: Inhibition of recombinant tau (unknown origin) aggregation.
Assay [11] addresses Huntingtin (Homo sapiens, UniProt P42858). In words: Inhibition of HD exon 1 fusion protein with 51 glutamine residues (unknown origin) aggregation expressed in Escherichia coli SURE after 16 hrs by Western blotting analysis.
For assay [12], the system named is Canis familiaris. In words: Antialzheimer activity in Beagle dog assessed as reduction in CSF amyloid beta level at 5 mg/kg, po after 9 hrs relative to control. The format is functional, Canis lupus familiaris. More on the design: scale not given: the % may be the effect or the level left.
Assay [13] is filed under the species Homo sapiens. In words: Selectivity ratio of IC50 for recombinant GluN2A/GluN2D receptor (unknown origin) to IC50 for GluN2C/GluN2D (unknown origin) receptor.
The subject of assay [14] is Homo sapiens. In words: Neuroprotective activity in Parkinson disease patient assessed as reduction of L-DOPA-induced dyskinesia administered as infusion treated prior to L-DOPA-challenge relative to control. The format is functional. More on the design: scale not given: the % may be the effect or the level left.
For assay [15], the species on record is Mus musculus. In words: Neuroprotective activity in amyotrophic lateral sclerosis mouse model expressing human SOD1 G93A mutant assessed as increase in life span relative to control. The format is functional.
The target of assay [16] is Nitric oxide synthase 1 (Rattus norvegicus, UniProt P29476).
A short description of assay [17]: Neuroprotective activity in rat Cortical neuron assessed as protection from glutamate-induced neurotoxicity treated after glutamate-challenge by lactate dehydrogenase assay. The settings on record: cortical neurone. The assay is classed as functional.
The species named for assay [18] is Homo sapiens. The experiment in a line: Selectivity ratio of IC50 for NTD-deleted GluN1/NTD-deleted GluN2D receptor (unknown origin) to IC50 for NTD-deleted GluN1/NTD-deleted GluN2A receptor (unknown origin).

The structures appear in SMILES notation. Non-standard residues stand in square brackets, D forms with d. Residues, ends and D or L forms follow the SMILES beside them. dArg(NO2) = N=C(NCCC[C@@H](N)C(=O)O)N[N+](=O)[O-]

Chain of Nitric oxide synthase 1 (Homo sapiens, UniProt P29475) (P29475 whole entry): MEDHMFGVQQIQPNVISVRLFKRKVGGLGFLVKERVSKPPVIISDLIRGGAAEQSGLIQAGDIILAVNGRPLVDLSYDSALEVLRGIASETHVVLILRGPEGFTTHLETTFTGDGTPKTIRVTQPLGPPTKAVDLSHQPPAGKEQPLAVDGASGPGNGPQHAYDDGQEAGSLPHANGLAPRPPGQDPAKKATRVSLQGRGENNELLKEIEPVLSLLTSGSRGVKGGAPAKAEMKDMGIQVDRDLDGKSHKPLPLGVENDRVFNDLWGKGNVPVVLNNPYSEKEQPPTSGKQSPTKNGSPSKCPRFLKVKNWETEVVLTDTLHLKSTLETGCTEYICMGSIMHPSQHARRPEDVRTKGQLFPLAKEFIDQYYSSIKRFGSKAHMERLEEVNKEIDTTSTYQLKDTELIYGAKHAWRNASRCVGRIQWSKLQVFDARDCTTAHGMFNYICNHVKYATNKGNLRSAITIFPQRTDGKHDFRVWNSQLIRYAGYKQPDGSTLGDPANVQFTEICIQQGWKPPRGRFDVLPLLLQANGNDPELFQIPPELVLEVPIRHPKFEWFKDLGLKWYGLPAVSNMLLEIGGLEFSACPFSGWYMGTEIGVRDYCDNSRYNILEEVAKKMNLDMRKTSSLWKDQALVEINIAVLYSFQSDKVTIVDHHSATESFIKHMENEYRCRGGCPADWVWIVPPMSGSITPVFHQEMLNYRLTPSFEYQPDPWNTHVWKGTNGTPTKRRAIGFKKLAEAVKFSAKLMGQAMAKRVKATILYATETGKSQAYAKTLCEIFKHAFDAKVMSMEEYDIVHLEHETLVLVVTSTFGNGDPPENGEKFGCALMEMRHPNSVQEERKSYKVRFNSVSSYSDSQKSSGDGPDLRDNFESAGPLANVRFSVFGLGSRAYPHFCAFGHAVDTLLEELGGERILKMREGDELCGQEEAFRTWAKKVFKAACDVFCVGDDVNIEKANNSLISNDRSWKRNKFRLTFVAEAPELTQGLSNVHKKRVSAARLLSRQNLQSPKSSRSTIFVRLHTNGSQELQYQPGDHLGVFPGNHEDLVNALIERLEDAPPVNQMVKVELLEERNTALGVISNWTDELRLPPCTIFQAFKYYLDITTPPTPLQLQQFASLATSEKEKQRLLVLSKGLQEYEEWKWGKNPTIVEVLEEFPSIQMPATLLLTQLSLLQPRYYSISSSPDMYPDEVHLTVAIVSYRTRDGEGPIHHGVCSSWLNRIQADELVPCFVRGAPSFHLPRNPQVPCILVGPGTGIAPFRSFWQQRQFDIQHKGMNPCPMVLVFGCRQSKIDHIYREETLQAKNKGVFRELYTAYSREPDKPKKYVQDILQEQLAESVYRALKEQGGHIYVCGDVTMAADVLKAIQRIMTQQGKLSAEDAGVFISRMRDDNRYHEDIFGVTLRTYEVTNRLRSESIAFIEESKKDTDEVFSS
Chain of Nitric oxide synthase 1 (Rattus norvegicus, UniProt P29476) (P29476 whole entry): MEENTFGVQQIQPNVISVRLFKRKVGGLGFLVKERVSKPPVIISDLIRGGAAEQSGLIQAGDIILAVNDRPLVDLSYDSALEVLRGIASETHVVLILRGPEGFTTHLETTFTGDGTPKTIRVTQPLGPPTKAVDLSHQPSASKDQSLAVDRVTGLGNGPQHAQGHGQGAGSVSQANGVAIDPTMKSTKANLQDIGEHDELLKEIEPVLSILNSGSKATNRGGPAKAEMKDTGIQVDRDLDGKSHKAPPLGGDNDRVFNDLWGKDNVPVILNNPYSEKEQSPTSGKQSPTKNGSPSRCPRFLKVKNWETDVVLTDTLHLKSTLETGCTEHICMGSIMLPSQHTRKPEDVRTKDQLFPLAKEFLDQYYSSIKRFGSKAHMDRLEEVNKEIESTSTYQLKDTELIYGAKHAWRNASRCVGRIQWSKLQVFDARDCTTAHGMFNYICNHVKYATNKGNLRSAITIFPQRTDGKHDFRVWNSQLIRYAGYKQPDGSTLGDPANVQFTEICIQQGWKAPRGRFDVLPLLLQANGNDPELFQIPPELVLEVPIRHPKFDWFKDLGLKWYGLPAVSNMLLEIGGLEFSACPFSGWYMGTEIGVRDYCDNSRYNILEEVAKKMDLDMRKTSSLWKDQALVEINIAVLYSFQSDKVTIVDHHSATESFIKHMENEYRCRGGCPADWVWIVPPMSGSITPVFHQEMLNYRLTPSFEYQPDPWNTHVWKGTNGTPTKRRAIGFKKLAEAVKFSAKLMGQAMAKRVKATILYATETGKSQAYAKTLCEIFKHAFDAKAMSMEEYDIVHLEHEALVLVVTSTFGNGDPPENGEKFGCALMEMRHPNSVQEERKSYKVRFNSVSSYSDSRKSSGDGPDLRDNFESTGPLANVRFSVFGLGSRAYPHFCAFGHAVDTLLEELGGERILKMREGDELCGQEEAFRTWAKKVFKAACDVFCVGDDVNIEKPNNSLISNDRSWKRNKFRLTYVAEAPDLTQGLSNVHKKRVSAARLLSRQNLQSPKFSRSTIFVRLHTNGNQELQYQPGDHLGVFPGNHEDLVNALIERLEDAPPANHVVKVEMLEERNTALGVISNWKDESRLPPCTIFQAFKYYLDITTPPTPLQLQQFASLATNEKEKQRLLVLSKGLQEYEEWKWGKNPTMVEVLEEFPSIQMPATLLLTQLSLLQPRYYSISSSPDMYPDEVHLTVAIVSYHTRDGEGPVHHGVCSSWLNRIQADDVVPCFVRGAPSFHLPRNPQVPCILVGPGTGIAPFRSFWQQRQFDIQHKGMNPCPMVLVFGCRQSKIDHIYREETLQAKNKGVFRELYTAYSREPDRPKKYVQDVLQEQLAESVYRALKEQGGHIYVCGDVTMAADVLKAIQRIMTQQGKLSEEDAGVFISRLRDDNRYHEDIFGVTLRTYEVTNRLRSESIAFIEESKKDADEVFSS
Chain of Nitric oxide synthase, inducible (P35228 whole entry): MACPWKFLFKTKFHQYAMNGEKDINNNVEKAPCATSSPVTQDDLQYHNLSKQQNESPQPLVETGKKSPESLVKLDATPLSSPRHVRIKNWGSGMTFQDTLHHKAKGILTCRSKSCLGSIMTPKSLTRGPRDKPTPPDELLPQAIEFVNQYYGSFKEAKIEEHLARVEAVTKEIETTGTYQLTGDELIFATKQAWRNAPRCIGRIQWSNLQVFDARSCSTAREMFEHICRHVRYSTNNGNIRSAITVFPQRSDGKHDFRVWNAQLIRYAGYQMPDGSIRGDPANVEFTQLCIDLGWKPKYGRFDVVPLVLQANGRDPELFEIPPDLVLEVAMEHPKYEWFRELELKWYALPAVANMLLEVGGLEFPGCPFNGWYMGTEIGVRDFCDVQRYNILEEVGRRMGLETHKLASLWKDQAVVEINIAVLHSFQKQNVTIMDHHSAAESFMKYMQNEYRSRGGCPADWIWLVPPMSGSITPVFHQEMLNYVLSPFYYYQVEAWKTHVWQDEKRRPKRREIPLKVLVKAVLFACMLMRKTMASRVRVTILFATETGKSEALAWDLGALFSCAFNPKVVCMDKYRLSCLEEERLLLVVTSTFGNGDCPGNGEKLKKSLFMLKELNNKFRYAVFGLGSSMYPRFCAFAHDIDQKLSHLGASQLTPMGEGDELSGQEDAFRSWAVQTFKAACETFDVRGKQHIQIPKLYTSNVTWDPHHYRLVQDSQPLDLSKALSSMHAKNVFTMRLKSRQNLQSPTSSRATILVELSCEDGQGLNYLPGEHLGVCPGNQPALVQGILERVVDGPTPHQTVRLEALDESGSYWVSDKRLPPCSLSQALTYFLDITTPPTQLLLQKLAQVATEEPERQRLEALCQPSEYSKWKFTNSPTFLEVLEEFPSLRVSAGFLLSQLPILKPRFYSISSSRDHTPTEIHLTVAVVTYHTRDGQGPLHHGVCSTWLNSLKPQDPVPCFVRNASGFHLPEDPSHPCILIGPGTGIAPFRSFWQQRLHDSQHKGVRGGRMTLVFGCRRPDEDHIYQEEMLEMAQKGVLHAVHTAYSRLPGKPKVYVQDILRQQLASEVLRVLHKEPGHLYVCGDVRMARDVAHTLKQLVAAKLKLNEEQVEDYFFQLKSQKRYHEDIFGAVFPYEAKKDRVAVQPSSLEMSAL
Chain of Microtubule-associated protein tau (P10636 whole entry, the tested form may be a part): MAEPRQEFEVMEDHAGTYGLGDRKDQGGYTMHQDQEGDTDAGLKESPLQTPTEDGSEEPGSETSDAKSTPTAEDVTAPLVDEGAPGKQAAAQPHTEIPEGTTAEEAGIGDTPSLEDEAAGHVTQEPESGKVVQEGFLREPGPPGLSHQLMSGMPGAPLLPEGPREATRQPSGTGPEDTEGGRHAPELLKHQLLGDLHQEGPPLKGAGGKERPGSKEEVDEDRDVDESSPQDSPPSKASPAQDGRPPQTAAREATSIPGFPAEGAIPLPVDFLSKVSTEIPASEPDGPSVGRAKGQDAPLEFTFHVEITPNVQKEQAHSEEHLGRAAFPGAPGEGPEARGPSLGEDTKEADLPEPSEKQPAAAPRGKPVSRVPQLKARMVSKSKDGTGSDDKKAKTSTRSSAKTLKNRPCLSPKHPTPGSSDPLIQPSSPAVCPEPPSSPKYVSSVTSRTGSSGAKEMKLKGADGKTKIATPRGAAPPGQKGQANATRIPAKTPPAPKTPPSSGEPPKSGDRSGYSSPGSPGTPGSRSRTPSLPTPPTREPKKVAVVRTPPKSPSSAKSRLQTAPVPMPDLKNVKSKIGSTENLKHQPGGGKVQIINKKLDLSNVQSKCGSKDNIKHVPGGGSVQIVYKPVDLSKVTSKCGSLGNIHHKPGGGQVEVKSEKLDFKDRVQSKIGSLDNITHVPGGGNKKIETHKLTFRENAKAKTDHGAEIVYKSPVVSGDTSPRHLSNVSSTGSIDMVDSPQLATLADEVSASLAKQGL

As usually defined, the IC50 is the concentration that inhibits the measured activity by half. Take `CN(C)CCOc1ccc(-c2cccc(N)n2)c2c1CCCC2`: inhibition in assay [1] was half-maximal at 70 nM (IC50). Besides, the Ratio IC50 in [2] was determined as 50. In the case of `Cc1ccc2c(c1)c1c(n2CCc2ccc(C)nc2)CCN(C)C1` [LATREPIRDINE], the IC50 stood at 10000 nM in assay [3] and 50000 nM in assay [4]. As a reminder, the Ki is a dissociation constant, usually derived from enzyme kinetics or from competition with a known ligand. On to `N/N=C(\N)NCCC[C@H](N)C(=O)O`, for which the Ratio Ki in assay [5] turned out to be 8.3; in [7], 10. The affinity in [6] corresponds to a Ki of 300 nM. Regarding `NC(=Nc1ccc(CCNCCc2cccc(Cl)c2)cc1)c1cccs1`, the values for the IC50 in [8], in assay [9] and in assay [1] were 3500 nM, 5000 nM and 35 nM, respectively. For the compound `Cc1cc2nc3ccc(N(C)C)cc3[s+]c2cc1N` [TOLONIUM CHLORIDE], the Ki in assay [10] was found to be 69 nM. Turning to `COC(=O)c1ccc(C(=O)Nc2nc3ccc(C(=O)Nc4ccccc4)cc3s2)cc1`, the concentration for half-maximal inhibition (IC50) in assay [11] worked out at 1200 nM.

Take `N=C(NCCC[C@H](N)C(=O)O)N[N+](=O)[O-]` [NITROARGININE]: the Ratio Ki in assay [5] is 11; in assay [7] it was 293.

On to `C[C@@]1(c2cc(-c3cncnc3)c(F)cc2F)CCSC(N)=N1` [LY-2811376], for which the Activity in assay [12] turned out to be 70%. As for `CC(=O)CN1CCN(CCc2ccc(-c3cccc(N)n3)cc2)CC1`, inhibition in assay [1] was half-maximal at 140 nM (IC50). In addition, the Ratio IC50 in [2] stood at 6. `N=C(Nc1ccc(CCNCCc2cccc(Cl)c2)cc1)c1cccs1`: the Ratio IC50 in assay [2] is 100.

For the compound `Cc1ccc2[nH]c(=O)c(C3=NN(C(=O)CCC(=O)O)C(c4ccc(Br)cc4)C3)c(-c3ccccc3)c2c1` (stereo not given), the Ratio IC50 in [13] is greater than 50. Turning to `C[C@@H]([C@@H](O)c1ccc(O)cc1)N1CCC(O)(c2ccccc2)CC1` [TRAXOPRODIL], the Activity in [14] is reported as 30%. On to `[O-][n+]1cccc(/C(Cl)=N/OC[C@H](O)CN2CCCCC2)c1` [ARIMOCLOMOL], for which the Activity in [15] worked out at 22%. With `C=CNC(=N)NCCC[C@H](N)C(=O)O`, the Ratio Ki worked out at 35 in assay [5] and 11 in [7]. The Ki in assay [6] was found to be 200 nM. `COC(=O)[C@@H](CCCNC(=N)N[N+](=O)[O-])NC(=O)[C@H](N)Cc1ccccc1` (H-[dF]-[dArg(NO2)]-OMe): the figures for the Ratio Ki in assay [5] and in assay [7] were 2.6 and 1800, respectively. The Ki in [16] turned out to be 1900 nM. On to `C[C@@H](CN1CCC(Cc2ccccc2)CC1)[C@@H](O)c1ccc(O)cc1`, for which the IC50 in [17] worked out at 400 nM. As to `O=C(O)c1cc2cc(Br)ccc2oc1=O`, the Ratio IC50 in assay [18] came out at 23. `CC(C(O)c1ccc(O)cc1)N1CCC(Cc2ccccc2)CC1` (stereo not given) [IFENPRODIL]: the half-maximal inhibitory concentration (IC50) in [17] was found to be 3500 nM.
